Key:
HCT116 MTAP+/+ = assay: Inhibition of cellular proliferation (Cell Titer Glo), HCT116 MTAP+/+; format: cell-based, human; details: Homo sapiens, HCT-116, 96 h, 4 days, IC50 score, read-out: 4 Day Relative Growth Inhibition (MTAP +/+; Example 277)
How it was run: (§1)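 Proliferation was read as ATP luminescence (Cell Titer Glo) after a 4-day, 37 °C exposure of HCT116 cells differing only in MTAP deletion status. Dosing was 10 points, 3-fold steps, added 24 h post-plating; signal minus blank, relative to 0.2% DMSO control wells, was plotted against log molar concentration.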

HCT116 MTAP−/− = assay: Inhibition of cellular proliferation (Cell Titer Glo), HCT116 MTAP−/−; format: cell-based, human; details: Homo sapiens, HCT-116, 96 h, 4 days, IC50 score, read-out: 4 Day Relative Growth Inhibition (MTAP −/−; Example 277)
How it was run: as §1

MAT2A homodimer = molecular target: T1, MAT2A homodimer (Homo sapiens, UniProt P31153); assay: Biochemical assay: inhibition of MAT2A (phosphate release, PiColorLock Gold); details: MAT2A IC50 score; read-out: Enzyme Inhibition (Example 275)
T1 construct: inferred from Ni sepharose purification and imidazole elution; made in house; host or cells: Sf9 insect cells, recombinant baculovirus (Bac to Bac, pFASTBAC1)
How it was run: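 Phosphate formed alongside SAM was read with PiColorLock Gold and quantified against a potassium phosphate standard curve. Reactions ran 60 min at 25 °C after adding a substrate mix of 500 μM ATP and 400 μM L-methionine (mix concentrations). Compound had first been preincubated 60 min with recombinant Sf9-derived MAT2A homodimer ([…]) in pH 8.0 Tris buffer containing MgCl2, KCl, EDTA and BSA.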

[1] = tested on: SAM in HCT116 human colon carcinoma cell line engineered to delete the MTAP gene (MTAP −/−); assay: Cellular assay of target engagement (SAM) by LC-MS/MS; format: cell-based; details: Homo sapiens, HCT-116, 72 h, IC50 score, read-out: Cell 72 h SAM Inhibition (MTAP −/−; Example 276)
How it was run: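 Intracellular SAM, the MAT2A product, was measured by quantitative LC-MS/MS against a d3-SAM standard in methanol/acetic acid extracts. Extracts came from HCT116 MTAP −/− cells exposed for 72 h at 37 °C to a ten-point, threefold dilution series of compound, added one day after seeding.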

T1 sequence (P31153 whole entry): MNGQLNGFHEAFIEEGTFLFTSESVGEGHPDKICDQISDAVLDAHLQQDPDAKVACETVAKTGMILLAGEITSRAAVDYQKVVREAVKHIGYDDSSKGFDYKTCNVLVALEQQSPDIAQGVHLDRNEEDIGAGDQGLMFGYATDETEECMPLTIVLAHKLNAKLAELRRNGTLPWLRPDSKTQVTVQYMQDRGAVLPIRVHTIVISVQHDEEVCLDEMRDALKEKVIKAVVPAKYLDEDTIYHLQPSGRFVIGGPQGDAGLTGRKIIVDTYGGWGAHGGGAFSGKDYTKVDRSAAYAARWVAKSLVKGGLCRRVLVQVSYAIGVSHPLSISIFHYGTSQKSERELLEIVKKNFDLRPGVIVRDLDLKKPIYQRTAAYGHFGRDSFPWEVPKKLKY

| Compound | IC50 (HCT116 MTAP+/+) [µM] | IC50 (HCT116 MTAP−/−) [nM] | IC50 (MAT2A homodimer) [nM] | IC50 [1] [nM] |
| --- | --- | --- | --- | --- |
| CCOc1ncc2cn(-c3ccc4ncn(C)c4c3)c(=O)c(-c3ccc(Cl)cc3)c2n1 [Example 269, 8-(4-chlorophenyl)-2-ethoxy-6-(1-methyl-1H-benzo[d]imidazol-6-yl)pyrido[4,3-d]pyrimidin-7(6H)-one] | > 10 | 100 to 10000 | < 100 | < 100 |
| CCOc1ncc2cn(-c3ccc4nn(C)cc4c3)c(=O)c(-c3ccc(Cl)cc3)c2n1 [Example 270, 8-(4-chlorophenyl)-2-ethoxy-6-(2-methyl-2H-indazol-5-yl)pyrido[4,3-d]pyrimidin-7(6H)-one] | > 10 | < 100 | < 100 | < 100 |
| CCOc1ncc2cn(-c3ccc4nn(C)cc4c3)c(=O)c(-c3ccc(OC(F)F)cc3)c2n1 [Example 272, 8-(4-(difluoromethoxy)phenyl)-2-ethoxy-6-(2-methyl-2H-indazol-5-yl)pyrido[4,3-d]pyrimidin-7(6H)-one] | > 10 | 100 to 10000 | < 100 | < 100 |

Now from value to molecule:

| IC50 (HCT116 MTAP+/+) [µM] | IC50 (HCT116 MTAP−/−) [nM] | IC50 (MAT2A homodimer) [nM] | IC50 [1] [nM] | Compound |
| --- | --- | --- | --- | --- |
| > 10 | < 100 | < 100 | < 100 | Cn1cc2cc(-n3cc4cnc(OCC(F)(F)F)nc4c(-c4ccc(OC(F)F)cc4)c3=O)ccc2n1 [Example 265, 8-(4-(difluoromethoxy)phenyl)-6-(2-methyl-2H-indazol-5-yl)-2-(2,2,2-trifluoroethoxy)pyrido[4,3-d]pyrimidin-7(6H)-one] |
| > 10 | 100 to 10000 | < 100 | 100 to 1000 | O=c1c(-c2ccc(-c3nc[nH]n3)cc2)c2nc(OCC(F)(F)F)ncc2cn1-c1ccc2ncccc2c1 [Example 268, 8-(4-(H-1,2,4-triazol-3-yl)phenyl)-6-(quinolin-6-yl)-2-(2,2,2-trifluoroethoxy)pyrido[4,3-d]pyrimidin-7(6H)-one] |

Reference: patent publication US11524960B2, “Heterobicyclic inhibitors of MAT2A and methods of use for treating cancer” (AGIOS PHARMACEUTICALS, INC., priority 2018, dated 2022)
